Source: patent publication US7125868B2, “Thienothiazine compound having anti-inflammatory and analgesic properties and method of making and using the same” (priority 2001, dated 2006)

Tests used:
[1] = tested on: Adjuvant Induced Rat Foot Swelling; assay: Adjuvant induced rat foot swelling (primary and secondary inflammation); type: in vivo
[2] = tested on: Rat Gastric Mucosa Ulcer; assay: Side effects of causing rat gastric mucosa ulcer; conditions: four successive days
[3] = tested on: Carrageenan Induced Rat Foot Swelling; assay: Carrageenan induced rat foot swelling; type: in vivo
From the text: Divide the rats randomly into five groups, with each group consisting of ten rats. […] Use carrageenan induced inflammation to cause rat plantar swelling.

[4] = tested on: Body Twist Reaction Induced by Acetic Acid; assay: Acetic acid induced body twist reaction (chemical stimuli induced pain); conditions: mouse
[5] = tested on: Dimethylbenzene Induced Mouse Ear Swelling; assay: Dimethylbenzene induced mouse ear swelling
From the text: Divide the mice randomly into five groups, with each team consisting of ten mice. […] Dimethylbenzene was used to induce ear swelling of the mice.

Cc1cnc(NC(=O)C2=C(O)c3sc(Cl)cc3S(=O)(=O)N2C)s1 [Example 1, 6-chlorine-4-hydroxy-2-methyl-N-[2′-(5′-methyl)thiazolyl]-2H-thieno-[2,3-e]-1,2-thiazine-3-formamide-1,1-dioxide]
Rate of the Change in the Volume of Left and Right Feet after Giving Adjuvant ([1]; 1.0 mg/kg oral, 18 hours): 0.77 ± 0.28
Rate of the Change in the Volume of Left and Right Feet after Giving Adjuvant ([1]; 1.0 mg/kg oral, 24 hours): 0.75 ± 0.24
Rate of the Change in the Volume of Left and Right Feet after Giving Adjuvant ([1]; 1.0 mg/kg oral, 3 days): 0.74 ± 0.28
Rate of the Change in the Volume of Left and Right Feet after Giving Adjuvant ([1]; 1.0 mg/kg oral, 8 days): 0.75 ± 0.29
Rate of the Change in the Volume of Left and Right Feet after Giving Adjuvant ([1]; 1.0 mg/kg oral, 19 days): 0.97 ± 0.19
Rate of the Change in the Volume of Left and Right Feet after Giving Adjuvant ([1]; 2.0 mg/kg oral, 18 hours): 0.62 ± 0.10
Rate of the Change in the Volume of Left and Right Feet after Giving Adjuvant ([1]; 2.0 mg/kg oral, 24 hours): 0.60 ± 0.10
Rate of the Change in the Volume of Left and Right Feet after Giving Adjuvant ([1]; 2.0 mg/kg oral, 3 days): 0.61 ± 0.13
Rate of the Change in the Volume of Left and Right Feet after Giving Adjuvant ([1]; 2.0 mg/kg oral, 8 days): 0.60 ± 0.14
Rate of the Change in the Volume of Left and Right Feet after Giving Adjuvant ([1]; 2.0 mg/kg oral, 19 days): 0.69 ± 1.10
Rate of the Change in the Volume of Left and Right Feet after Giving Adjuvant ([1]; 4.0 mg/kg oral, 18 hours): 0.65 ± 0.08
Rate of the Change in the Volume of Left and Right Feet after Giving Adjuvant ([1]; 4.0 mg/kg oral, 24 hours): 0.65 ± 0.12
Rate of the Change in the Volume of Left and Right Feet after Giving Adjuvant ([1]; 4.0 mg/kg oral, 3 days): 0.53 ± 0.13
Rate of the Change in the Volume of Left and Right Feet after Giving Adjuvant ([1]; 4.0 mg/kg oral, 8 days): 0.63 ± 0.16
Rate of the Change in the Volume of Left and Right Feet after Giving Adjuvant ([1]; 4.0 mg/kg oral, 19 days): 0.72 ± 1.12
inhibition of the primary and secondary inflammation induced by adjuvant ([1]; 1, 2, 4 mg/kg oral): dosage dependent inhibition
Ulcer Occurring Rate ([2]; 1 mg/kg oral): 0%
Ulcer Occurring Rate ([2]; 2 mg/kg oral): 30%
Ulcer Occurring Rate ([2]; 4 mg/kg oral): 80%
Change in the Foot Volume after Giving the Carrageenan ([3]; 1.0 mg/kg, five hours): 0.83 ± 0.28
Change in the Foot Volume after Giving the Carrageenan ([3]; 1.0 mg/kg, four hours): 0.76 ± 0.28
Change in the Foot Volume after Giving the Carrageenan ([3]; 1.0 mg/kg, one hour): 0.25 ± 0.15
Change in the Foot Volume after Giving the Carrageenan ([3]; 1.0 mg/kg, six hours): 0.83 ± 0.25
Change in the Foot Volume after Giving the Carrageenan ([3]; 1.0 mg/kg, three hours): 0.66 ± 0.34
Change in the Foot Volume after Giving the Carrageenan ([3]; 1.0 mg/kg, two hours): 0.56 ± 0.27
Change in the Foot Volume after Giving the Carrageenan ([3]; 2.0 mg/kg, five hours): 0.79 ± 0.25
Change in the Foot Volume after Giving the Carrageenan ([3]; 2.0 mg/kg, four hours): 0.70 ± 0.25
Change in the Foot Volume after Giving the Carrageenan ([3]; 2.0 mg/kg, one hour): 0.24 ± 0.11
Change in the Foot Volume after Giving the Carrageenan ([3]; 2.0 mg/kg, six hours): 0.80 ± 0.21
Change in the Foot Volume after Giving the Carrageenan ([3]; 2.0 mg/kg, three hours): 0.63 ± 0.54
Change in the Foot Volume after Giving the Carrageenan ([3]; 2.0 mg/kg, two hours): 0.39 ± 0.17
Change in the Foot Volume after Giving the Carrageenan ([3]; 4.0 mg/kg, five hours): 0.60 ± 0.31
Change in the Foot Volume after Giving the Carrageenan ([3]; 4.0 mg/kg, four hours): 0.59 ± 0.30
Change in the Foot Volume after Giving the Carrageenan ([3]; 4.0 mg/kg, one hour): 0.29 ± 0.20
Change in the Foot Volume after Giving the Carrageenan ([3]; 4.0 mg/kg, six hours): 0.64 ± 0.24
Change in the Foot Volume after Giving the Carrageenan ([3]; 4.0 mg/kg, three hours): 0.50 ± 0.20
Change in the Foot Volume after Giving the Carrageenan ([3]; 4.0 mg/kg, two hours): 0.37 ± 0.22
effectiveness on carrageenan induced plantar swelling compared with Meloxicam ([3]; 1, 2, 4 mg/kg vs Meloxicam 4 mg/kg): substantially more effective than the positive medicine Meloxicam
Numbers of Occurrence of Body Twist (x ± s) ([4]; 2.0 mg/kg oral): 14.78 ± 6.38
Percentage of Body Twist ([4]; 2.0 mg/kg oral): 90%
Numbers of Occurrence of Body Twist (x ± s) ([4]; 4.0 mg/kg oral): 10.78 ± 8.15
Percentage of Body Twist ([4]; 4.0 mg/kg oral): 80%
Numbers of Occurrence of Body Twist (x ± s) ([4]; 8.0 mg/kg oral): 2.78 ± 3.49
Percentage of Body Twist ([4]; 8.0 mg/kg oral): 60%
Rate of Ear Swelling (x ± s) ([5]; 2 mg/kg oral): 0.56 ± 0.35
inhibition rate (ear swelling) ([5]; 2 mg/kg oral): 56%
Rate of Ear Swelling (x ± s) ([5]; 4 mg/kg oral): 0.67 ± 0.43
inhibition rate (ear swelling) ([5]; 4 mg/kg oral): 67%
Rate of Ear Swelling (x ± s) ([5]; 8 mg/kg oral): 0.81 ± 0.26
inhibition rate (ear swelling) ([5]; 8 mg/kg oral): 81%

Cc1cnc(NC(=O)C2=C(O)c3ccccc3S(=O)(=O)N2C)s1 [Meloxicam, reference compound]
Numbers of Occurrence of Body Twist (x ± s) ([4]; 8.0 mg/kg oral): 18.11 ± 14.37
Percentage of Body Twist ([4]; 8.0 mg/kg oral): 100%
Rate of Ear Swelling (x ± s) ([5]; 8 mg/kg oral): 0.43 ± 0.36
inhibition rate (ear swelling) ([5]; 8 mg/kg oral): 43%
